Assay results: ChEMBL document CHEMBL1148502, “Carbonic anhydrase inhibitors: inhibition of the cytosolic human isozyme VII with anions” (Bioorg Med Chem Lett, 2006)
Several values for one entry are separate records, joined by “and”; a condition that tells them apart may be missing. Equal entries are not always repeated.

Experiments:
[1] = biological target: Carbonic anhydrase 7 (Homo sapiens, UniProt P43166)
Description: Inhibition of human recombinant CA7

[2] = Selectivity for human CA7 over murine CA13
[3] = species on record: Homo sapiens; experiment: Selectivity for human CA7 over human CA1
[4] = species on record: Homo sapiens; experiment: Selectivity for human CA7 over human CA2

Chain of Carbonic anhydrase 7 (P43166 whole entry): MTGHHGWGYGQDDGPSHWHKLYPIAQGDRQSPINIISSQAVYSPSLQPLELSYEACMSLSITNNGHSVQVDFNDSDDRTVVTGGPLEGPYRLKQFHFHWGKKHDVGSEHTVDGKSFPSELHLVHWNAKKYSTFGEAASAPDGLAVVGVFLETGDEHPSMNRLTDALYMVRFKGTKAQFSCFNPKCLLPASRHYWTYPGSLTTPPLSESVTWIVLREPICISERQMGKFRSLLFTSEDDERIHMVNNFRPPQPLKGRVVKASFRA

## O=C(O)O [BICARBONATE]
[1]
  Ki: 270 µM and 160 µM

## Br [BROMIDE]
[1]
  Ki: 1060 µM

## N#CO [CYANATE]
[1]
  Ki: 15200 µM

## F [FLUORIDE ION]
[1]
  Ki: 1240 µM

## Cl [HYDROCHLORIC ACID]
[1]
  Ki: 1840 µM

## S [HYDROGEN SULFIDE]
[1]
  Ki: 1240 µM

## I [IODIDE]
[1]
  Ki: 250 µM

## O=[N+]([O-])O [NITRIC ACID]
[1]
  Ki: 190 µM

## O=NO [NITROUS ACID]
[1]
  Ki: 1780 µM

## OB(O)c1ccccc1 [PHENYLBORONIC ACID]
[2]
  Selectivity ratio: 343
[3]
  Selectivity ratio: 7060
[4]
  Selectivity ratio: 2780
[1]
  Ki: 8.3 µM

## NS(=O)(=O)O [SULFAMATE]
[1]
  Ki: 9.5 µM

## O=S(=O)(O)O [SULFURIC ACID]
[1]
  Ki: 1380 µM

## O=S(O)O [SULFUROUS ACID]
[1]
  Ki: 7300 µM

## N#CS [THIOCYANIC ACID]
[1]
  Ki: 170 µM
